Experimental findings from the supplement of paper PMC6965134 are described below.

The series in a line: TIMS collisional cross section (CCS, N2) of the lipid ion; higher = larger ion cross section. The settings on record: ionization mode: negative, one isomer drawn. The protocol:
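Lipid extracts of human plasma (NIST SRM 1950), mouse liver or HeLa cells were separated by nanoflow C18 LC (30 min gradient) and analysed by TIMS-PASEF on a timsTOF Pro. Ion mobility was calibrated with the Agilent tuning mix (negative mode ions) and converted to collisional cross sections (Mason–Schamp, N2).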

[1] abbreviates: sample type: Mouse Liver, ion (formula + adduct): [C45H82NO8P-H] 1-.

± gives the standard deviation of the averaged measurements.
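Also: lipids from MTBE extraction, five replicate injections per sample, 100 ms TIMS ramp spanning 0.6–1.95 Vs/cm², lipid identity assigned from PASEF MS/MS spectra.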

In the case of `CCCCCC/C=C\CCCCCCCCCC(=O)O[C@H](COC(=O)CCCCCCCCCCCCCC)COP(=O)([O-])OCC[N+](C)(C)C` [PC 15:0_18:1], the “TIMS collisional cross section” value (sample type: Human plasma, ion (formula + adduct): [C41H80NO8P+HCOO] 1-) is reported as 288.8 Å².
In the case of `CC/C=C\C/C=C\C/C=C\C/C=C\C/C=C\CCCCCC(=O)OC(COCCCCCCCCCCCCCCCC)COP(=O)([O-])OCC[N+](C)(C)C` (configuration not stated) [PC O- 16:0@_22:5], the “TIMS collisional cross section” value is recorded as 281.3 Å² (sample type: Human plasma, ion (formula + adduct): [C46H84NO7P-CH3] 1-) and 280.2 Å² (sample type: Mouse Liver, ion (formula + adduct): [C46H84NO7P-CH3] 1-).
Take `CC/C=C\C/C=C\C/C=C\C/C=C\C/C=C\CCCC(=O)OCC(O)COP(=O)(O)O` (configuration not stated) [LPA 20:5]: the “TIMS collisional cross section” value (sample type: Human plasma, ion (formula + adduct): [C23H37O7P-H] 1-) was 206.5 Å².
On to `CCCCC/C=C\C/C=C\C/C=C\CCCCCCC(=O)OC[C@H](COP(=O)(O)OC1[C@H](O)[C@H](O)C(O)[C@H](O)[C@H]1O)OC(=O)CCCCCCCCCCCCCCC` (some centres not stated) [PI 20:3@_16:0], for which the “TIMS collisional cross section” value (sample type: Human plasma, ion (formula + adduct): [C45H81O13P-H] 1-) amounted to 298.9 Å².
For the compound `CCCCC/C=C\C[C@H](O)/C=C/C=C\C/C=C\CCCC(=O)O[C@H](COC(=O)CCCCCCCCCCCCCCC)COP(=O)([O-])OCC[N+](C)(C)C` [Oxidized PC 16:0@_20:4], the “TIMS collisional cross section” value (sample type: Mouse Liver, ion (formula + adduct): [C44H80NO9P-CH3] 1-) is 281.3 Å².
Take `CC/C=C\C/C=C\C/C=C\C/C=C\C/C=C\C/C=C\CCC(=O)O[C@H](CO/C=C\CCCCCCCCCCCCCCCC)COP(=O)([O-])OCC[N+](C)(C)C` [PC P- 18:0@_22:6]: the “TIMS collisional cross section” value (sample type: Mouse Liver, ion (formula + adduct): [C48H84NO7P-CH3] 1-) was 285.8 Å².
As for `CCCCCCCCCCCCCCCCOCC(O)COP(=O)([O-])OCC[N+](C)(C)C` (configuration not stated) [LPC O- 16:0], where the note is “sample type: Human plasma, ion (formula + adduct): [C24H52NO6P+HCOO] 1-”, the “TIMS collisional cross section” value is reported as 236.6 Å².
In the case of `CC/C=C\C/C=C\CC(O)/C=C/C=C\C/C=C\C/C=C\CCC(=O)O[C@H](COC(=O)CCCCCCCCCCCCCCCCC)COP(=O)(O)OCCN` (some centres not stated) [Oxidized PE 18:0_22:6], the “TIMS collisional cross section” value (sample type: Human plasma, ion (formula + adduct): [C45H78NO9P-H] 1-) was 284.6 Å².
As to `CCCCC/C=C\C/C=C\CCCCCCCC(=O)O[C@H](COC(=O)CCCCCCCCCCCCCCCC)COP(=O)(O)OCCN` [PE 17:0_18:2], the “TIMS collisional cross section” value (sample type: Mouse Liver, ion (formula + adduct): [C40H76NO8P-H] 1-) turned out to be 269.4 Å².
Turning to `CCCCCC/C=C\CCCCCCCC(=O)OC[C@@H](O)COP(=O)(O)OC1[C@H](O)[C@H](O)C(O)[C@H](O)[C@H]1O` (some centres not stated) [LPI 16:1_0:0], the “TIMS collisional cross section” value (sample type: Human plasma, ion (formula + adduct): [C25H47O12P-H] 1-) is recorded as 230.2 Å².
Regarding `CC/C=C\C/C=C\C/C=C\C/C=C\C/C=C\CCCC(=O)OC[C@H](COP(=O)(O)OC1[C@H](O)[C@H](O)C(O)[C@H](O)[C@H]1O)OC(=O)CCCCCCCCCCCCCCCCC` (some centres not stated) [PI 20:5_18:0@], the “TIMS collisional cross section” value (sample type: Mouse Liver, ion (formula + adduct): [C47H81O13P-H] 1-) worked out at 296.4 Å².
As for `CCCCC/C=C\C/C=C\C/C=C\C/C=C\CCCCCC(=O)OC[C@@H](O)COP(=O)(O)OCCN` [LPE 22:4_0:0], the “TIMS collisional cross section” value (sample type: Human plasma, ion (formula + adduct): [C27H48NO7P-H] 1-) is listed as 223.5 Å² and the “TIMS collisional cross section” value (sample type: Mouse Liver, ion (formula + adduct): [C27H48NO7P-H] 1-) was 222.9 Å².
`CCCCC/C=C\C/C=C\C/C=C\C/C=C\CCCC(=O)O[C@H](COC(=O)CCCCCCCCCCCCCCCCC)COP(=O)([O-])OCC[N+](C)(C)C` [PC 18:0@_20:4]: the “TIMS collisional cross section” value (sample type: Human plasma, ion (formula + adduct): [C46H84NO8P+HCOO] 1-) was 297.2 Å².
Turning to `CCCCCCCCCCCCCCCCCCCC(=O)O[C@H](COC(=O)CCCCCCC)COP(=O)([O-])OCC[N+](C)(C)C` [PC 8:0_20:0@], the “TIMS collisional cross section” value (sample type: Mouse Liver, ion (formula + adduct): [C36H72NO8P+HCOO] 1-) stood at 277.6 Å².
As for `CCCCCCCCCCCCCC/C=C\OC[C@H](COP(=O)([O-])OCC[N+](C)(C)C)OC(=O)CCCCCCCCCCCCCCC` [PC P- 16:0_16:0], the “TIMS collisional cross section” value (sample type: Human plasma, ion (formula + adduct): [C40H80NO7P+HCOO] 1-) is on record as 287.8 Å² and the “TIMS collisional cross section” value (sample type: Mouse Liver, ion (formula + adduct): [C40H80NO7P-CH3] 1-) is 267.55 ± 2 Å².
As to `CCCCC/C=C\C/C=C\C/C=C\C/C=C\CCCC(=O)OC[C@H](COP(=O)(O)OCCN)OC(=O)CCCCCCCCCCCCCCCCCCC` [PE 20:4_20:0], the “TIMS collisional cross section” value under setting [1] is 281.8 Å².
Regarding `CCCCC/C=C\C/C=C\C/C=C\C/C=C\CCCCCC(=O)OC[C@H](COP(=O)(O)OCCN)OC(=O)CCCCCCCCCCCCCCCCC` [PE 22:4_18:0], the “TIMS collisional cross section” value came out at 283.6 Å² (sample type: Human plasma, ion (formula + adduct): [C45H82NO8P-H] 1-) and 283 Å² under setting [1].
For the compound `CC/C=C\C/C=C\C/C=C\C/C=C\C/C=C\C/C=C\CCC(=O)O[C@H](COC(=O)CCCCCCC/C=C\CCCCCC)COP(=O)([O-])OCC[N+](C)(C)C` [PC 16:1_22:6], the “TIMS collisional cross section” value (sample type: Human plasma, ion (formula + adduct): [C46H78NO8P+HCOO] 1-) came to 295.4 Å².
As to `CCCCC/C=C\C/C=C\C/C=C\C/C=C\CCCCCC(=O)OC[C@H](COP(=O)(O)OC[C@H](N)C(=O)O)OC(=O)CCCCCCCCCCCCCCC` [PS 22:4@_16:0], the “TIMS collisional cross section” value (sample type: Mouse Liver, ion (formula + adduct): [C44H78NO10P-H] 1-) was 288.7 Å².
Take `CCCCCCCCCCCCCCCCCC(=O)OC[C@@H](O)COP(=O)([O-])OCC[N+](C)(C)C` [LPC 18:0_0:0]: the “TIMS collisional cross section” value is, setting by setting: (sample type: Human plasma, ion (formula + adduct): [C26H54NO7P+HCOO] 1-) 246.01 ± 2.8 Å²; (sample type: Human plasma, ion (formula + adduct): [C26H54NO7P-CH3] 1-) 225.5 Å²; (sample type: Mouse Liver, ion (formula + adduct): [C26H54NO7P+HCOO] 1-) 244.8 ± 0.42 Å².
For `CCCCCCCCCCCCCCCCCC(=O)O[C@H](COCCCCCCCCCCCCCC)COP(=O)([O-])OCC[N+](C)(C)C` [PC O- 14:0@_18:0], for the setting “sample type: Mouse Liver, ion (formula + adduct): [C40H82NO7P+HCOO] 1-”, the “TIMS collisional cross section” value is recorded as 287.2 Å².
Consider `CC/C=C\C/C=C\C/C=C\C/C=C\C/C=C\C/C=C\CCC(=O)O[C@H](COC(=O)CCCCCCCCCCCCCC)COP(=O)(O)OCCN` [PE 15:0_22:6], for which the “TIMS collisional cross section” value (sample type: Mouse Liver, ion (formula + adduct): [C42H72NO8P-H] 1-) was determined as 271.6 Å².
As to `CC/C=C\C/C=C\C/C=C\C/C=C\C/C=C\CCCC(=O)O[C@H](CO/C=C\CCCCCCCCCCCCCC)COP(=O)([O-])OCC[N+](C)(C)C` [PC P- 16:0@_20:5], the “TIMS collisional cross section” value by setting is: (sample type: Human plasma, ion (formula + adduct): [C44H78NO7P+HCOO] 1-) 292.2 Å²; (sample type: Human plasma, ion (formula + adduct): [C44H78NO7P-CH3] 1-) 275.1 Å².
On to `CCCCC/C=C\C/C=C\C/C=C\CCCCCCC(=O)OC[C@@H](O)COP(=O)(O)OCCN` [LPE 20:3_0:0], for which the “TIMS collisional cross section” value (sample type: Mouse Liver, ion (formula + adduct): [C25H46NO7P-H] 1-) worked out at 217.6 ± 0.42 Å².
As for `C=CCCC(=O)O[C@H](COC(=O)CCCCCCCCCCCCCCC)COP(=O)([O-])OCC[N+](C)(C)C` [PC 16:0_5:1@], the “TIMS collisional cross section” value (sample type: Mouse Liver, ion (formula + adduct): [C29H56NO8P+HCOO] 1-) came to 247.5 Å².
With `CC/C=C\C/C=C\C/C=C\C/C=C\CCCCCCC(=O)O[C@H](COCCCCCCCC/C=C\CCCCCC)COP(=O)([O-])OCC[N+](C)(C)C` [PC O- 16:1@_20:4], the “TIMS collisional cross section” value was determined as 296.2 Å² (sample type: Human plasma, ion (formula + adduct): [C44H80NO7P+AcO] 1-); 278.5 Å² (sample type: Human plasma, ion (formula + adduct): [C44H80NO7P-H] 1-); 292.2 Å² (sample type: Mouse Liver, ion (formula + adduct): [C44H80NO7P+HCOO] 1-); 275.7 Å² (sample type: Mouse Liver, ion (formula + adduct): [C44H80NO7P-CH3] 1-).
Turning to `CCCCCC/C=C\CCCCCCCC(=O)OC[C@H](COP(=O)(O)OCCN)OC(=O)CCCCCCCCCCCCCCC` [PE 16:1_16:0], the “TIMS collisional cross section” value came to 261.6 Å² (sample type: Human plasma, ion (formula + adduct): [C37H72NO8P-H] 1-) and 261.6 Å² (sample type: Mouse Liver, ion (formula + adduct): [C37H72NO8P-H] 1-).
`CC/C=C\C/C=C\C/C=C\C/C=C\C/C=C\C/C=C\CCC(=O)OC[C@H](COP(=O)(O)OC[C@H](N)C(=O)O)OC(=O)CCCCCCCCCCCCCCC` [PS 22:6_16:0]: for the setting “sample type: Mouse Liver, ion (formula + adduct): [C44H74NO10P-H] 1-”, the “TIMS collisional cross section” value is recorded as 283.5 Å².
As to `CC/C=C\C/C=C\C/C=C\C/C=C\C/C=C\C/C=C\CCC(=O)O[C@H](COC(=O)CCCCCCCCCCCCCCCC)COP(=O)([O-])OCC[N+](C)(C)C` [PC 17:0@_22:6], the “TIMS collisional cross section” value was 301.2 Å² (sample type: Human plasma, ion (formula + adduct): [C47H82NO8P+HCOO] 1-) and 301.2 Å² (sample type: Mouse Liver, ion (formula + adduct): [C47H82NO8P+HCOO] 1-).
For the compound `CCCC/C=C\CCCCCCCC(=O)OCC(COP(=O)(O)OC1C(O)C(O)C(O)C(O)C1O)OC(=O)CCCCCCC/C=C\C/C=C\CCCCC` (configuration not stated) [PI 14:1@_18:2], where the note is “sample type: Human plasma, ion (formula + adduct): [C41H73O13P+AcO] 1-”, the “TIMS collisional cross section” value is 287.2 Å².
